Experimental data from ChEMBL document CHEMBL6121055, “Strategic Mutations in Designer Native Peptides Combat NLRP3 Inflammasome Activation in Neurodegenerative Disorders” (J Med Chem, 2025).
The source made the active and inactive calls. The calls are words filed in the database; no cut-off is given here. Residues, ends and D or L forms follow the SMILES beside them. *: point of attachment. Biotin = O=C1N[C@H]2[C@H](CS[C@H]2CCCCC(=O)*)N1

Columns and labels:
[1] = system: N9; assay: Inhibition of NLRP3 inflammasome activation in LPS/ATP-stimulated mouse N9 cells assessed as inhibition of IL-1beta mRNA expression at 20 uM by qRT-PCR analysis; format: cell-based
[2] = system: N9; assay: Inhibition of NLRP3 inflammasome activation in LPS/ATP-stimulated mouse N9 cells assessed as inhibition of caspase-1 mRNA expression at 20 uM by qRT-PCR analysis; format: cell-based
[3] = Cytotoxicity against mouse N9 cells assessed as reduction in cell viability at 100 uM incubated for 24 hrs by MTT assay; format: toxicity, cell-based; settings: n9, 24 h
[4] = target: T1, Apoptosis-associated speck-like protein containing a CARD (Mus musculus) (UniProt Q9EPB4); assay: Binding affinity to ASC in LPS-stimulated mouse N9 cells at 10 to 30 uM incubated overnight by Western blot based pull down assay; format: cell-based; settings: dose 10-30 µM
T1 sequence (whole entry): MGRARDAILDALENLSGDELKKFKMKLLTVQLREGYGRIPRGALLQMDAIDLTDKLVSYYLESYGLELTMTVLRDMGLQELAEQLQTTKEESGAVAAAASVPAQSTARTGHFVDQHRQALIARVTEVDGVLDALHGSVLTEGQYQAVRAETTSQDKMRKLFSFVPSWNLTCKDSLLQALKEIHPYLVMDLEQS

[5] = system: N9; assay: Binding affinity to NLRP3 in LPS-stimulated mouse N9 cells at 10 to 30 uM incubated overnight by Western blot based pull down assay; format: cell-based; settings: dose 10-30 µM
[6] = system: N9; assay: Inhibition of NLRP3 inflammasome activation mediated pyroptosis in LPS/ATP-stimulated mouse N9 cells assessed as reduction in cell death at 100 uM measured after 24 hrs by MTT assay; format: cell-based
[7] = target: Apoptosis-associated speck-like protein containing a CARD (Homo sapiens, UniProt Q9ULZ3); assay: Binding affinity to Alexa647-labeled ASC (unknown origin) assessed as dissociation constant incubated for 5 mins by fluorescence spectra based analysis
Sequence of Apoptosis-associated speck-like protein containing a CARD (Q9ULZ3 whole entry): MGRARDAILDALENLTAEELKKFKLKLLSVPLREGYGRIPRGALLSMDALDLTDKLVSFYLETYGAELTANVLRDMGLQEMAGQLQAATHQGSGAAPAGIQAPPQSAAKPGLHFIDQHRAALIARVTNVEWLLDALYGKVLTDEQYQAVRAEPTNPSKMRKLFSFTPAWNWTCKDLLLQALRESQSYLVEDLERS

Row | SMILES | Activity [3] | other results
1 | C[C@H](NC(=O)[C@@H](N)CCCCN)C(=O)N[C@@H](CCCCN)C(=O)N[C@@H](CCCNC(=N)N)C(=O)N[C@@H](CC(=O)O)C(=O)O (H-KAKRD-OH) | Non-toxic | inhibition [1]: Active; inhibition [2]: Active
2 | CC[C@H](C)[C@H](NC(=O)[C@H](Cc1c[nH]c2ccccc12)NC(=O)[C@@H](N)C(C)C)C(=O)N[C@@H](CC(C)C)C(=O)N[C@@H](C)C(=O)N[C@@H](CCCCN)C(=O)N[C@@H](C)C(=O)N[C@@H](CCC(N)=O)C(=O)N[C@@H](CCCNC(=N)N)C(=O)N[C@@H](CC(=O)O)C(=O)O (H-VWILAKAQRD-OH) | Non-toxic | –
3 | CC[C@H](C)[C@H](NC(=O)[C@H](CCSC)NC(=O)[C@H](CC(C)C)NC(=O)[C@@H](NC(=O)[C@H](C)NC(=O)[C@H](CC(C)C)NC(=O)[C@@H](N)CC(=O)O)[C@@H](C)O)C(=O)N[C@@H](CC(=O)O)C(=O)N[C@@H](Cc1ccccc1)C(=O)O (H-DLATLMIDF-OH) | Non-toxic | –
4 | CC[C@H](C)[C@H](NC(=O)[C@H](CS)NC(=O)CNC(=O)[C@@H](N)CCCCN)C(=O)N1CCC[C@H]1C(=O)N[C@@H](CC(C)C)C(=O)N1CCC[C@H]1C(=O)N[C@@H](CCCNC(=N)N)C(=O)O (H-KGCIPLPR-OH) | Non-toxic | –
5 | CC[C@H](C)[C@H](NC(=O)[C@H](C)NC(=O)[C@H](C)NC(=O)[C@H](CC(C)C)NC(=O)[C@@H](NC(=O)[C@H](Cc1c[nH]c2ccccc12)NC(=O)[C@@H](NC(=O)CCCC[C@@H]1SC[C@@H]2NC(=O)N[C@@H]21)C(C)C)[C@@H](C)CC)C(=O)N[C@@H](CC(N)=O)C(=O)N[C@@H](CCCNC(=N)N)C(=O)N[C@@H](CCCNC(=N)N)C(=O)O (Biotin-VWILAAINRR-OH) | – | Activity [4]: Active; Activity [5]: inactive
6 | CC[C@H](C)[C@H](NC(=O)[C@H](C)NC(=O)[C@H](C)NC(=O)[C@H](Cc1ccccc1)NC(=O)[C@@H](NC(=O)[C@H](Cc1c[nH]c2ccccc12)NC(=O)[C@@H](N)C(C)C)[C@@H](C)CC)C(=O)N[C@@H](CC(N)=O)C(=O)N[C@@H](CCCNC(=N)N)C(=O)N[C@@H](CCCNC(=N)N)C(=O)O (H-VWIFAAINRR-OH) | Non-toxic | inhibition [6]: Active; inhibition [1]: Active; Better Activity Observed; inhibition [2]: Active; Better Activity Observed; Kd [7]: 850 nM
7 | CSCC[C@H](NC(=O)[C@@H](N)CO)C(=O)N[C@@H](CC(=O)O)C(=O)N[C@@H](C)C(=O)N[C@@H](CC(C)C)C(=O)N[C@@H](CC(=O)O)C(=O)N[C@@H](CC(C)C)C(=O)N[C@H](C(=O)N[C@@H](CC(=O)O)C(=O)N[C@@H](CCCCN)C(=O)N[C@@H](CC(C)C)C(=O)N[C@H](C(=O)N[C@@H](CO)C(=O)O)C(C)C)[C@@H](C)O (H-SMDALDLTDKLVS-OH) | Non-toxic | –
8 | CSCC[C@H](NC(=O)[C@H](CO)NC(=O)[C@H](C)NC(=O)[C@@H](NC(=O)[C@H](CC(C)C)NC(=O)[C@H](CC(N)=O)NC(=O)[C@H](CCC(=O)O)NC(=O)[C@H](CC(C)C)NC(=O)[C@H](C)NC(=O)[C@@H](N)CC(=O)O)[C@@H](C)O)C(=O)N[C@@H](CC(=O)O)C(=O)O (H-DALENLTASMD-OH) | Non-toxic | –
9 | CC(C)C[C@H](NC(=O)[C@H](C)NC(=O)[C@@H](N)CC(=O)O)C(=O)N[C@@H](CCC(=O)O)C(=O)N[C@@H](CC(N)=O)C(=O)O (H-DALEN-OH) | Non-toxic | –
10 | C[C@H](NC(=O)[C@@H](N)CCCCN)C(=O)N[C@@H](CCC(N)=O)C(=O)N[C@@H](CCCNC(=N)N)C(=O)N[C@@H](CC(=O)O)C(=O)O (H-KAQRD-OH) | Non-toxic | –
11 | CC[C@H](C)[C@H](NC(=O)[C@H](Cc1c[nH]c2ccccc12)NC(=O)[C@@H](N)C(C)C)C(=O)N[C@@H](Cc1ccccc1)C(=O)N[C@@H](C)C(=O)N[C@@H](CCCCN)C(=O)N[C@@H](C)C(=O)N[C@@H](CCCCN)C(=O)N[C@@H](CCCNC(=N)N)C(=O)N[C@@H](CC(=O)O)C(=O)O (H-VWIFAKAKRD-OH) | Non-toxic | inhibition [1]: Active; inhibition [2]: Active
